Test results reported in publication PMC9088703 (RSC Advances, 2018).
Read-outs that look alike come from different tables or passages of the source. Blank lines part the entries; values can stand above or below the compound they belong to.

Key:
BSA [1] = biological target: T1, BSA (Bos taurus, UniProt P02769); type: in vitro ADME, bovine; conditions: for fraction unbound at 60 min, 0.5 μg mL^−1 / fraction unbound at 60 min, 1 μg mL^−1 / fraction unbound at 60 min, 2 μg mL^−1: bovine, BSA solution; for Effect on the plasma protein binding of metoprolol: BSA, metoprolol 0.5, 1 and 2 μg mL^−1, statistical results (p > 0.05)
BSA [2] = biological target: T1, BSA; test: Plasma protein binding of metoprolol in BSA by ultrafiltration and UPLC; type: in vitro ADME, bovine; conditions: for C f: total free concentration in filtrate
Nonspecific binding = type: in vitro ADME; conditions: concentration recovered after ultrafiltration
plasma protein = conditions: in humans; cited from earlier work

T1 sequence (P02769 25-607): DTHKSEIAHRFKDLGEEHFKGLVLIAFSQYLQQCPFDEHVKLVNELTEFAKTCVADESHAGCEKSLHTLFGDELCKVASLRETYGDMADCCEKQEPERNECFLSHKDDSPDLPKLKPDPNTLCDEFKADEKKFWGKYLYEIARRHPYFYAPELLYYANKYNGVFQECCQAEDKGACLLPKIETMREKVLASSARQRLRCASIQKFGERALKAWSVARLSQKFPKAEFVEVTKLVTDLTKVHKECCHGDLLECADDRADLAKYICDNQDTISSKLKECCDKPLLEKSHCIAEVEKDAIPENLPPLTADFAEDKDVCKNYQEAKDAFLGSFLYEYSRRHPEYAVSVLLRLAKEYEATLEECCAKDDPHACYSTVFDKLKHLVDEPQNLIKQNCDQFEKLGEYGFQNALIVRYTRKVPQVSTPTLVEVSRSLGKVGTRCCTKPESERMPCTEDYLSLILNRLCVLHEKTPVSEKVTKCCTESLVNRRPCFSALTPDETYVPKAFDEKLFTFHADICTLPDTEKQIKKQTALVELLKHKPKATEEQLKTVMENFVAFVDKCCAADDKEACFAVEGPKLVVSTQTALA

SMILES: CC1(C)[C@@H](O[C@H]2O[C@H](C(=O)O)[C@@H](O)[C@H](O)[C@H]2O[C@@H]2O[C@H](C(=O)O)[C@@H](O)[C@H](O)[C@H]2O)CC[C@]2(C)[C@H]3C(=O)C=C4[C@@H]5C[C@@](C)(C(=O)O)CC[C@]5(C)CC[C@@]4(C)[C@]3(C)CC[C@@H]12 [Glycyrrhizic acid, glycyrrhizic acid]
Effect on the plasma protein binding of metoprolol (BSA [1]): unlikely to affect

SMILES: O=C(O)/C=C/c1ccccc1 [Cinnamic acid, cinnamic acid]
Effect on the plasma protein binding of metoprolol (BSA [1]): unlikely to affect

SMILES: C=C1CCC[C@]2(C)C[C@]3(O)OC(=O)C(C)=C3C[C@@H]12 [Atractylenolide III, atractylenolide III]
Effect on the plasma protein binding of metoprolol (BSA [1]): unlikely to affect

Further lines, with some results ahead:

fraction unbound at 60 min, 0.5 μg mL^−1 (BSA [1]; Plasma protein binding (with cinnamic acid), metoprolol 0.5 μg mL^−1 plus cinnamic acid 1 μg mL^−1, BSA): 0.741 | fraction unbound at 60 min, 1 μg mL^−1 (BSA [1]; Plasma protein binding (with cinnamic acid), metoprolol 1 μg mL^−1 plus cinnamic acid 1 μg mL^−1, BSA): 0.693 | fraction unbound at 60 min, 2 μg mL^−1 (BSA [1]; Plasma protein binding (with cinnamic acid), metoprolol 2 μg mL^−1 plus cinnamic acid 1 μg mL^−1, BSA): 0.716 | fraction unbound at 60 min, 0.5 μg mL^−1 (BSA [1]; Plasma protein binding (with glycyrrhizic acid), metoprolol 0.5 μg mL^−1 plus glycyrrhizic acid 2 μg mL^−1, BSA): 0.721 | fraction unbound at 60 min, 1 μg mL^−1 (BSA [1]; Plasma protein binding (with glycyrrhizic acid), metoprolol 1 μg mL^−1 plus glycyrrhizic acid 2 μg mL^−1, BSA): 0.717 | fraction unbound at 60 min, 2 μg mL^−1 (BSA [1]; Plasma protein binding (with glycyrrhizic acid), metoprolol 2 μg mL^−1 plus glycyrrhizic acid 2 μg mL^−1, BSA): 0.704 | fraction unbound at 60 min, 0.5 μg mL^−1 (BSA [1]; Plasma protein binding (with liquiritin), metoprolol 0.5 μg mL^−1 plus liquiritin 2 μg mL^−1, BSA): 0.74 | fraction unbound at 60 min, 1 μg mL^−1 (BSA [1]; Plasma protein binding (with liquiritin), metoprolol 1 μg mL^−1 plus liquiritin 2 μg mL^−1, BSA): 0.708 | fraction unbound at 60 min, 2 μg mL^−1 (BSA [1]; Plasma protein binding (with liquiritin), metoprolol 2 μg mL^−1 plus liquiritin 2 μg mL^−1, BSA): 0.701 | C free (BSA [1]; metoprolol 0.5 μg mL^−1 plus atractylenolide III (0.1 μg mL^−1)): 0.37 ± 0.02 µg/mL | C f (BSA [1]; metoprolol 0.5 μg mL^−1 plus cinnamic acid 1 μg mL^−1): 0.37 ± 0.01 µg/mL | C free (BSA [1]; metoprolol 0.5 μg mL^−1 plus glycyrrhizic acid 2 μg mL^−1): 0.35 ± 0.02 µg/mL | C free (BSA [1]; metoprolol 0.5 μg mL^−1 plus liquiritin 2 μg mL^−1): 0.37 ± 0.01 µg/mL | C free (BSA [1]; metoprolol 1 μg mL^−1 plus atractylenolide III (0.1 μg mL^−1)): 0.70 ± 0.02 µg/mL | C f (BSA [1]; metoprolol 1 μg mL^−1 plus cinnamic acid 1 μg mL^−1): 0.69 ± 0.02 µg/mL | C free (BSA [1]; metoprolol 1 μg mL^−1 plus glycyrrhizic acid 2 μg mL^−1): 0.72 ± 0.02 µg/mL | C free (BSA [1]; metoprolol 1 μg mL^−1 plus liquiritin 2 μg mL^−1): 0.71 ± 0.03 µg/mL | C free (BSA [1]; metoprolol 2 μg mL^−1 plus atractylenolide III (0.1 μg mL^−1)): 1.40 ± 0.08 µg/mL | C f (BSA [1]; metoprolol 2 μg mL^−1 plus cinnamic acid 1 μg mL^−1): 1.44 ± 0.03 µg/mL | C free (BSA [1]; metoprolol 2 μg mL^−1 plus glycyrrhizic acid 2 μg mL^−1): 1.40 ± 0.03 µg/mL | C free (BSA [1]; metoprolol 2 μg mL^−1 plus liquiritin 2 μg mL^−1): 1.39 ± 0.03 µg/mL | fraction unbound at 60 min, 0.5 μg mL^−1 (BSA [2]; bovine, BSA solution): 0.718 | fraction unbound at 60 min, 1 μg mL^−1 (BSA [2]; bovine, BSA solution): 0.703 | fraction unbound at 60 min, 2 μg mL^−1 (BSA [2]; bovine, BSA solution): 0.716 | C f (BSA [2]; metoprolol 0.5 μg mL^−1 alone): 0.36 ± 0.01 µg/mL | C f (BSA [2]; metoprolol 1 μg mL^−1 alone): 0.70 ± 0.02 µg/mL | C f (BSA [2]; metoprolol 2 μg mL^−1 alone): 1.45 ± 0.03 µg/mL | C post (Nonspecific binding; added 0.5 μg mL^−1): 0.40 ± 0.02 µg/mL | C post (Nonspecific binding; added 1.0 μg mL^−1): 0.78 ± 0.03 µg/mL | C post (Nonspecific binding; added 2.0 μg mL^−1): 1.55 ± 0.05 µg/mL
SMILES: COCCc1ccc(OCC(O)CNC(C)C)cc1 (centres unmarked) [Metoprolol]
mean plasma protein binding (PPB) (plasma protein): 30.70 ± 2.76%

Effect on the plasma protein binding of metoprolol (BSA [1]): unlikely to affect
SMILES: O=C1C[C@@H](c2ccc(O[C@@H]3O[C@H](CO)[C@@H](O)[C@H](O)[C@H]3O)cc2)Oc2cc(O)ccc21 [Liquiritin, liquiritin]
